# Organism: Homo sapiens
# Experiment: Inhibitory activity against adenosine diphosphate (ADP)-induced platelet aggregation
# Type: functional, organism-based
row,Compound,IC50
1,N=C(N)c1ccc(OCCCCOc2ccc(C[C@H](NC(=O)c3ccccc3)C(=O)O)cc2)cc1,> 1000 nM
2,N=C(N)c1ccc(NC(=O)COc2ccc(C[C@H](NC(=O)c3ccc4ccccc4c3)C(=O)O)cc2)cc1,510 nM
3,N=C(N)c1ccc(NC(=O)COc2ccc(C[C@H](NC(=O)c3ccccc3)C(=O)O)cc2)cc1,270 nM
4,N=C(N)c1ccc(OCCOc2ccc(C[C@H](NC(=O)c3ccccc3)C(=O)O)cc2)cc1,740 nM
5,Cc1ccccc1OCC(=O)N[C@@H](Cc1ccc(OCC(=O)Nc2ccc(C(=N)N)cc2)cc1)C(=O)O,610 nM
6,N=C(N)c1ccc(OCCOc2ccc(C[C@H](NC(=O)c3ccco3)C(=O)O)cc2)cc1,710 nM
7,Cc1ccc(C(=O)N[C@@H](Cc2ccc(OCC(=O)Nc3ccc(C(=N)N)cc3)cc2)C(=O)O)cc1,250 nM
8,N=C(N)c1ccc(OCCCOc2ccc(C[C@H](NC(=O)c3ccccc3)C(=O)O)cc2)cc1,> 1000 nM
